The values below come from paper PMC7684764 (Journal of medicinal chemistry, 2020).

One data set deals with RS4;11 cells. Description: Western blot analysis. Particulars: wt-p53 wt-FLT3 RS4;11, 24 h; 13a 200 nM, panobinostat 100 nM, vorinostat 5000 nM. The format is cell-based. A general note: Immunoblotting shows a protein as a band on a membrane.
In the next data set the test system is SR cell line. In words: Western blot analysis. As to conditions: wt-p53 SR, 24 h, Figure S7. The format is cell-based.
For data set [1], the system named is MV4–11 cells. Description: Combination index. The format is cell-based. As to conditions: MV4–11, 48 h, lower concentrations, Figure S8.
Another data set concerns HL60 cells. Description: Western blot analysis. It is filed as cell-based. Particulars: p53-null wt-FLT3 HL60, 24 h, Figure 5D.
For another data set, the system named is NCI60 tumor cell lines. Description: NCI60 tumor cell lines screen, whole panel. It is filed as cell-based. Particulars: concentrations under 10 μM.
The subject of data set [2] is MV4–11 cells. In words: Release profile by western blot after drug wash-out. The format is cell-based. As to conditions: MV4–11, 3 h treatment, up to 6 h, Figure 3B.
In data set [3] the test system is Salmonella typhimurium strain (with modified TA100). As to conditions: with liver S9 fraction activation.
In data set [4] the target is T1, APN (CD13, microsomal aminopeptidase) (Sus scrofa, UniProt P15145).
T1 sequence (P15145 1-963): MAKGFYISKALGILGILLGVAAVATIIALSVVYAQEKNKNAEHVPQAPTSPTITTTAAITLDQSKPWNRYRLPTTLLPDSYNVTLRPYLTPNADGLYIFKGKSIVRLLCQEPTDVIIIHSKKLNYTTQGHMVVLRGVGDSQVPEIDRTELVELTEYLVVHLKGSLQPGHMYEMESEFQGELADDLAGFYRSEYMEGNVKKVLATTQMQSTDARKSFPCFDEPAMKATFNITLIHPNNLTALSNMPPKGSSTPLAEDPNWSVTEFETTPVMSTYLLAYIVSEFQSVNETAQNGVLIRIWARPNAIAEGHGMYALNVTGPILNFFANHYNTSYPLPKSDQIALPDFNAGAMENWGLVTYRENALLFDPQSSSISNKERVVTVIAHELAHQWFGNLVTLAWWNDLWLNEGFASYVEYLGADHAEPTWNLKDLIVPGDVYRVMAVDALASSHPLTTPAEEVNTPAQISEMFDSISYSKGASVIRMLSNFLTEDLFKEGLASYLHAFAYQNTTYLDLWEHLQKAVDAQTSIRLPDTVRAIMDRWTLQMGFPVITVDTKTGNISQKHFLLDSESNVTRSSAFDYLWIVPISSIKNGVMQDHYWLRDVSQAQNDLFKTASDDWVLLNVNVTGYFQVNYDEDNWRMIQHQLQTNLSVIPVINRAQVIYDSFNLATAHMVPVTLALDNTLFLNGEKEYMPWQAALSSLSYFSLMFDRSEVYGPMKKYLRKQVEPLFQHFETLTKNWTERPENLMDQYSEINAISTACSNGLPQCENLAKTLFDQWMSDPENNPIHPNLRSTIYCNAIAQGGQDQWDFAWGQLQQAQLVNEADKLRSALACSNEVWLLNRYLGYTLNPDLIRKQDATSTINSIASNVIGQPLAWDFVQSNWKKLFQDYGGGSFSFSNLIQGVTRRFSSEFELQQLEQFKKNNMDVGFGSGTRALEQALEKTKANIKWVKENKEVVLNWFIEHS
In words: CD13 inhibition assay. The format is biochemical, porcine. As to conditions: 13a 50 μM and 10 μM, Figure S4.

For data set [5], the system named is MV4–11 cells. Description: Western blot analysis. The format is cell-based. Particulars: for increase in Hsp70 levels: 24 h, Figures 5A and C (MV4–11 and RS4;11); for FLT3 and STAT5 levels / pro-caspase3 cleavage: wt-p53 FLT3-ITD MV4–11, 24 h, Figure 5A.
In another data set the target is HDAC1 (Homo sapiens, UniProt Q13547). In words: In vitro HDACs inhibition fluorescence assay. It is filed as biochemical. As to conditions: IC50 curves after pre-incubation of 10, 30, 60 and 90 min, Figure 3A.
Chain of HDAC1 (Q13547 whole entry): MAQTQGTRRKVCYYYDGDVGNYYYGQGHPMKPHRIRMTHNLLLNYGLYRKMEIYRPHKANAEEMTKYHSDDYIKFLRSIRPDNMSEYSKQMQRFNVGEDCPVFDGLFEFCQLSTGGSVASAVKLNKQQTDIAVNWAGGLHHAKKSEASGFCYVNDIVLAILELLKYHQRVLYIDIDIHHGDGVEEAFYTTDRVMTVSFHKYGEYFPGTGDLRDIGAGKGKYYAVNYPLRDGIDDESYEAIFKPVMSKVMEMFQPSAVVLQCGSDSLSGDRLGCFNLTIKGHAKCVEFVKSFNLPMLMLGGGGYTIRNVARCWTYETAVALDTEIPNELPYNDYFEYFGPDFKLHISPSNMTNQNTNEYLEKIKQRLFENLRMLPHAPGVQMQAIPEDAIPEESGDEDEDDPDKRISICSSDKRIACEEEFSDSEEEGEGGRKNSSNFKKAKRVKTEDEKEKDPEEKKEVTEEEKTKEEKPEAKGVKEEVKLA
In a further data set the target is HDAC3 (Homo sapiens, UniProt O15379). Description: In vitro HDACs inhibition fluorescence assay. It is filed as biochemical.
Chain of HDAC3 (O15379 whole entry): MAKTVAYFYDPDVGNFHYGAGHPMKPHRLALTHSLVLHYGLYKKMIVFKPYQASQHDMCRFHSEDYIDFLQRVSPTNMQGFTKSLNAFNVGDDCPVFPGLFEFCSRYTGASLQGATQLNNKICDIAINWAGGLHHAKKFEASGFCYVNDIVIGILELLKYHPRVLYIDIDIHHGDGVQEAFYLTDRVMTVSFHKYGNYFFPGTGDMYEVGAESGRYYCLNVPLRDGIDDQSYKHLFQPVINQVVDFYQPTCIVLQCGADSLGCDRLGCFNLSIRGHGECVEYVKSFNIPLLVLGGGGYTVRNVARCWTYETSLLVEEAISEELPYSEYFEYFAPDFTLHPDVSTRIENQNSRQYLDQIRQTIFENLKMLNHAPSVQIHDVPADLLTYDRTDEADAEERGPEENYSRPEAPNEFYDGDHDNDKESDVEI
Chain of HDAC3 (Q9Y618 395-489 partner limits assumed): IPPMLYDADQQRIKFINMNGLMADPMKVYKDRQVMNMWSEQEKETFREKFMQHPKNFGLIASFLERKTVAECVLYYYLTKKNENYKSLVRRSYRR
For data set [6], the system named is MV4–11 cells. In words: EC50 analysis. The format is cell-based. As to conditions: MV4–11, 50 μM.

Consider `CCCNNC(=O)/C=C/c1ccc(CNCCc2c(C)[nH]c3ccccc23)cc1.O=C(O)C(F)(F)F` [Compound 13a, (E)-2-(2-methyl-1H-indol-3-yl)-N-(4-(3-oxo-3-(2-propylhydrazinyl)prop-1-en-1-yl)benzyl)ethanaminium 2,2,2-trifluoroacetate], for which the “cleavage of pro-caspase3” value in the data set on RS4;11 cells is reported as “only observed at high dose”. The pro-caspase3 cleavage result in the data set on SR cell line is listed as “does not cleave”. Besides, the “interaction of 13a with 17-AAG in anti-proliferation activity” value with MV4–11 cells [1] is recorded as “antagonized”. For the same compound, the pro-caspase3 cleavage result in the data set with HL60 cells was “not cleaved”. Also, in the data set on NCI60 tumor cell lines, the “number of the 60 cell lines with lethality under 10 μM” value was found to be 10. In the data set on MV4–11 cells [2], the acetylation of tubulin entry is reported as “does not increase the acetylation of tubulin” and the “histone acetylation after removal of drug” value is listed as “does not decrease within 6 h”. The “mutagenicity, Mini-Ames” value in [3] is “not mutagenic”. Also, in [4], the “inhibition of APN” value is listed as “does not show any inhibition”. Moreover, in the data set with MV4–11 cells [5], the “increase in Hsp70 levels” value is listed as “not observed”; the “FLT3 and STAT5 levels” value is “down-regulate”; the pro-caspase3 cleavage entry is “observed”.

Turning to `Nc1ccc2cc3ccccc3cc2c1` [2-aminoanthracene], the “mutagenicity, Mini-Ames” value in data set [3] was “Ames positive”.

On to `Cc1[nH]c2ccccc2c1CCNCc1ccc(/C=C/C(=O)NO)cc1` [Panobinostat], for which the “cleavage of pro-caspase3” value with RS4;11 cells is “observed”. The “on-kinetics, HDAC1” value on HDAC1 is given as “fast-on kinetics”. Further, in the data set on NCI60 tumor cell lines, the “number of the 60 cell lines with lethality under 10 μM” value was 18. For the same compound, in the data set with MV4–11 cells [2], the acetylation of tubulin entry is on record as “completely disappears after 30 min” and the “histone acetylation after removal of drug” value is “begins to decrease after 1 h”. Besides, on HDAC3, the “on-kinetics, HDAC3” value is “fast-on kinetics”. Moreover, in [3], the “mutagenicity, Mini-Ames” value was “Ames positive”. In the data set on MV4–11 cells [5], the “increase in Hsp70 levels” value is “observed” and the pro-caspase3 cleavage result was “observed”.

For `Cc1[nH]c2ccccc2c1CCNCc1ccc(/C=C/C(=O)NN2CCCCC2)cc1.O=C(O)C(F)(F)F` [Compound 26c, (E)-2-(2-methyl-1H-indol-3-yl)-N-(4-(3-oxo-3-(piperidin-1-ylamino)prop-1-en-1-yl)benzyl)ethanaminium 2,2,2-trifluoroacetate], the “effect on cell proliferation at 50 μM” value in the data set with MV4–11 cells [6] is “do not affect cell proliferation”.

Take `Nc1ccccc1NC(=O)c1ccc(CNC(=O)OCc2cccnc2)cc1` [Entinostat, entinostat]: the pro-caspase3 cleavage entry in the data set on MV4–11 cells [5] is reported as “observed”.

Consider `Cc1[nH]c2ccccc2c1CCNCc1ccc(/C=C/C(=O)NN(CCCO)CCCO)cc1.O=C(O)C(F)(F)F` [Compound 30, (E)-N-(4-(3-(2,2-bis(3-hydroxypropyl)hydrazinyl)-3-oxoprop-1-en-1-yl)benzyl)-2-(2-methyl-1H-indol-3-yl)ethanaminium 2,2,2-trifluoroacetate], for which the “effect on cell proliferation at 50 μM” value in the data set on MV4–11 cells [6] is recorded as “do not affect cell proliferation”.

Take `Cc1[nH]c2ccccc2c1CCNCc1ccc(/C=C/C(=O)NN2CCCC2)cc1.O=C(O)C(F)(F)F` [Compound 26b, (E)-2-(2-methyl-1H-indol-3-yl)-N-(4-(3-oxo-3-(pyrrolidin-1-ylamino)prop-1-en-1-yl)benzyl)ethanaminium 2,2,2-trifluoroacetate]: the “effect on cell proliferation at 50 μM” value with MV4–11 cells [6] is “do not affect cell proliferation”.

Take `Cc1[nH]c2ccccc2c1CCNCc1ccc(/C=C/C(=O)NN(C)C)cc1.O=C(O)C(F)(F)F` [Compound 26a, (E)-N-(4-(3-(2,2-dimethylhydrazinyl)-3-oxoprop-1-en-1-yl)benzyl)-2-(2-methyl-1H-indol-3-yl)ethanaminium 2,2,2-trifluoroacetate]: the “effect on cell proliferation at 50 μM” value with MV4–11 cells [6] was “do not affect cell proliferation”.

Consider `CCCNNC(=O)c1ccc(CNC(=O)/C=C/c2ccccc2)cc1` [LP411], for which, in the data set with MV4–11 cells [5], the “FLT3 and STAT5 levels” value is reported as “down-regulate”; the pro-caspase3 cleavage entry is recorded as “observed”.
